{"source": "patent US20260216141A1", "about": "“NECROSIS INHIBITOR” (LINKGEVITY LIMITED, priority 2023, published 2026)", "key": {"C. elegans [1]": {"system": "C. elegans", "assay": "C. elegans survival after cold, heat, oxidative and toxin stress", "assay_type": "in vivo, Caenorhabditis elegans", "conditions": "EGTA 2500 μM in liposomes, 3 hrs prior to stress or 3 hrs post stress", "description": "C. elegans was maintained on nematode growth medium (NGM) agar plates seeded with Escherichia coli OP50, using standard culture methodologies (S. Brenner, 1974). A C. elegans (N2H) hermaphrodite stock was used as wild-type. Day 1 hermaphrodites were used in experiments and all maintenance and trials were conducted at 20° C. unless otherwise stated.\nPer trial, 100 animals were placed in 1.5 ml Eppendorf tubes ([…]) containing 100 μl M9 buffer, and then transferred to a −80° C. incubator for 1.5 min. Following the stress, animals were transferred to a 20° C. incubator and maintained as usual on OP50 NGM plates. • Heat stress\nPer trial, 100 animals were placed in a 37° C. incubator for 4.5 hrs on NGM plates. Following the stress, animals were transferred to a 20° C. incubator and maintained as usual on OP50 NGM plates. • Oxidative stress\nPer trial, 100 animals were transferred into 1.5 ml Eppendorf tubes (20 animals per tube) containing 300 μL of 2M hydrogen peroxide for 5 min. Following the stress, animals were transferred to a 20° C. incubator and maintained as usual on OP50 NGM plates. • Toxin stress\nPer trial, 100 animals were transferred into 1.5 ml Eppendorf tubes (20 animals per tube) containing 300 μL of 1.3% (v/v) tert-butylhydroperoxide (tBOOH) for 5 min. […]\nNext the model Caenorhabditis elegans was used and animal survival following stress was scored. […]"}, "C. elegans [2]": {"system": "C. elegans", "assay": "C. elegans movement analysis post stress", "assay_type": "in vivo, Caenorhabditis elegans", "conditions": "EGTA 2500 μM in liposomes 3 hrs prior stress; cold, heat, oxidative and toxin stress", "text": "Movement was scored according to an adapted methodology (from Herndon et al., 2002). Briefly, animals were marked as either: normal movement; or defective movement. Defective movement was defined as worms that are stationary unless touched with a pick, in which case they may only move a few […] forward before stopping again or they may not move at all. 100 animals were used per trial and the percentage of worms with defective movement was scored.\nAccording to the protocol in Shibamura et al., 2009, drug was dissolved in MilliQ water and encapsulated in liposomes. Drug used was EGTA, at a final concentration of 2500 μM. Briefly, L-a-phosphatidylcholine (LαPC) was used to prepare liposomes by first dissolving LαPC in distilled water at the concentration of 96 mg/ml. A ×2 concentration of drug solution was mixed with LαPC to a 1:1 ratio and heated to 65° C. Drug-LαPC solution was then converted into liposomes using a mini-Avanti extruder a 100 nm pore size polycarbonate membrane. MilliQ water encapsulated in liposomes was used a as the empty vector control. Following preparation, 25 μl of the liposome drug solution was spread onto a 25 μl spot OP50 lawn on NGM plates and worms were then picked onto the plates.\nThe percentage of animals with this defective movement were scored post stress."}, "D. melanogaster": {"system": "D. melanogaster", "assay": "Drosophila cold/freeze stress survival", "assay_type": "in vivo, Drosophila melanogaster", "conditions": "fed 12 hrs food containing 2500 μM EGTA; 0 degrees for 10 min", "description": "Animals were under standard culture conditions. On day 1 of adulthood, they were starved for 8 hrs, then fed 12 hrs+/−EGTA 2500 μM. Following this, the animals were moved to 0° C. for 10 min and then recovered and survival measured.\nFruit flies, Drosophila melanogaster, were likewise exposed to heat and cold stress. […]. Flies were starved for a short period of 8 hrs and then fed for 12 hrs yeast containing high doses of a calcium chelating agent to ensure an adequate amount of drug entered the animals; doses used were: 0 or 2500 μM EGTA. This was followed by cold/freeze stress, where animals were placed at 0° C. for 10 min, and then animals were scored for survival every 12 hrs. […] Thus, like with single celled yeast and bacteria and C. elegans, a full organism level protective effect of blocking the predicted weak spots associated with cell death necrosis was also seen in fruit flies."}, "[3]": {"system": "HEK293 suspension culture", "assay": "HEK293 suspension culture oxidative stress, PI/DAPI staining", "assay_type": "cell-based, human", "conditions": "2500 μM EGTA 2 hrs prior and during stress, 20 sec 1M H2O2", "description": "HEK293 cells were detached using trypsin, washed and placed in cell culture medium. Cells were pre-treated for 2 hrs before and during stress with or without (control) EGTA 2500 μM. Cells were stressed by placing them in a 1M hydrogen peroxide solution (in cell culture medium) for 20 sec. Cells were then washed in cell culture medium and stained with PI as well as DAPI to visualise all cell nuclei (including intact cell nuclei), and placed on a microscope slide under a coverslip and imaged.\nFor HEK293 suspension culture, cells were treated with a high dosage of EGTA 2 hrs prior to stress as well as during the stress. Stress was exposure to 1M hydrogen peroxide alongside untreated controls. Cells were then stained with DAPI and PI and Normarski and epifluoresence imaging was performed."}, "Hepg2s spheroids": {"system": "Hepg2s spheroids", "assay": "Hepg2s spheroids made by hanging drop technique, necrotic core formation", "assay_type": "cell-based, human", "description": "Multi-cellular spheroids were prepared using a hanging drop method. A stock solution of methylcellulose (MC) was prepared by dissolving 1.2 g of MC powder (4000 cP, Sigma-Aldrich) in 100 ml of DMEM. The solution was magnetically stirred overnight at 4° C. and subsequently centrifuged at 4,000 g for 3 hrs. HepG2s cells were re-suspended in cell medium containing 20% MC stock solution at a concentration of 20,000 cells per 50 μL spheroid. 50 μL drops were subsequently pipetted onto a non-adherent petri dish (Greiner) and, replacing the lid, the dish was turned upside-down and incubated overnight at 37° C. Multi-cellular spheroids were harvested individually with a wide bore pipette or collectively by adding 5 mL cell medium to the dish, collecting and centrifuging the suspension at 300 g for 5 min and resuspending the spheroids in cell medium. Spheroids were then cultured for 5 days in 48 well plates containing 2.5% agarose gel and 400 μl cell medium. EGTA was added at 0 and 2500 μM to both the spheroid pre-cursor solution and the cell culture medium. At day 3 and day 5 the spheroids were imaged and assessed.\nNext, 3D cell culture was employed using Hepg2 cells and a standard hanging drop protocol of spheroid production. […] Necrotic cores disrupt physiology, and a challenge is vasculature formation faster than necrotic core formation. […]"}}, "note": "“Also recorded” adds a separate entry of the source.", "data": [{"smiles": "O=C(O)CN(CCOCCOCCN(CC(=O)O)CC(=O)O)CC(=O)O", "note": "[EGTA, ethylene glycol-bis(β-aminoethyl ether)-N,N,N′,N′-tetraacetic acid]", "values": [{"measurement": "C. elegans death / survival following stress", "setting": "C. elegans [1]", "value": "death is prevented"}, {"measurement": "movement defects post stress", "setting": "C. elegans [2]", "value": "reduced movement defects"}, {"measurement": "D. melanogaster death / survival following cold/freeze stress", "setting": "D. melanogaster", "value": "death is prevented; also recorded: significant protective effect"}, {"measurement": "% of necrotic cells (PI stain) relative to all cells (DAPI stain)", "setting": "[3]", "value": "necrosis cell death is prevented; also recorded: significantly reduced"}, {"measurement": "necrotic core formation", "setting": "Hepg2s spheroids; hanging drop Hepg2s spheroids, 2500 μM EGTA or 5000 μM EGTA, 5 days", "value": "no necrotic core even after 5 days"}, {"measurement": "necrotic core formation", "setting": "Hepg2s spheroids; hanging drop Hepg2 spheroids, 20,000 cells, EGTA at 250 and 500 mM, day 5", "value": "no necrotic cores being visible"}]}]}
